Residues, ends and D or L forms follow the SMILES beside them. No end group written: not given here.
Tests used:
Assay type in all cases: cell-based
[1] = molecular target: Cdyn (Homo sapiens, UniProt P61073, L41A/H113N/S178A); assay: Gαi BRET of peptides on Cdyn; parameters: Gi BRET (dEC50): unit not given here; conditions: Cdyn receptor; for Gi BRET (dEC50): vs WT:WT
Procedure: (§1) Lyophilized peptides were stored at −80 °C and resuspended in assay buffer on the day of the experiment.
(§2) 40,000 HEK 293T cells were transiently transfected with WT or variant HA3-CXCR4, Gαi1−91-Rluc8, Gβ3-WT, and Gγ9-GFP2 in pcDNA3.1(+) at a ratio of 10:1:10:5 respectively. Cells were first seeded in 100 µL DMEM 10% FBS in a poly-lysine coated, white-walled, white-bottom 96-well plate. Directly after cell loading, 50 µL of the mixture containing Lipofectamine 2000 and the DNA was added on top of the cells. The cells were then left to incubate at 37 °C, 5% CO2, and 95% relative humidity for 20 h, after which, 150 µL media was refreshed. Cells were assayed 48 h post-transfection. Cells were washed with 150 µL PBS, then 40 µL BRET buffer (HBSS, 0.2% Glucose) was added to each well. Coelenterazine 400a was first added at a final concentration of 2.5 µM and BRET ratios were measured once using Mithras[2] LB 943 plate reader. After the first measurement, 40 µL of a 3x concentrated agonist solution was added to each well, and BRET ratios were measured for another 30 min using a Mithras[2] LB 943 plate reader. Mock-transfected controls were subtracted from the data. Maximum values averaged from 3 replicates were then plotted against selected concentrations and fitted to a sigmoidal curve using GraphPad Prism v9.

[2] = molecular target: Csedy (Homo sapiens, UniProt P61073); assay: Gαi BRET of peptides on Csedy; conditions: Csedy receptor; for Gi BRET (dEC50): vs WT:WT
Chain of Csedy (P61073 whole entry): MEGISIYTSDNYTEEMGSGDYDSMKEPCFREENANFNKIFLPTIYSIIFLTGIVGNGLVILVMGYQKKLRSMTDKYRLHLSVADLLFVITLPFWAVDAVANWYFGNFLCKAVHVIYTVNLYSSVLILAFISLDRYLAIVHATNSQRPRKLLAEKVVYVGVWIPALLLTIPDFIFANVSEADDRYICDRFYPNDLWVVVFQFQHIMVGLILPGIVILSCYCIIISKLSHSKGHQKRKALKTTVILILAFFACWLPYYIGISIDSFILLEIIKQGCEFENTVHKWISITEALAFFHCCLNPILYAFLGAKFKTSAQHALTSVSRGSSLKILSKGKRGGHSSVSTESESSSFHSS
Procedure: as §1, §2

[3] = tested on: Gαi activation; assay: Gαi dissociation BRET of designed receptors with WT CXCL12(1-17) peptide; parameters: Gαi BRET response: scale not given here; conditions: HEK 293T
Procedure: as §1, §2

[4] = tested on: Csel2 transduced primary human T cells; assay: Boyden chamber migration of T cells transduced with Csel2; parameters: key: migrated cells toward chemokine / migrated cells without chemoattractant; conditions: 100 nM full-length chemokine vs no chemoattractant, peak over 8 h
Procedure: (§3) Full-length chemokine purification
(§4) CXCL12 and variants expressed in pMS211 (pET21a-based) construct and purified as previously described. N-terminal His-tag and leader sequence cleaved with enterokinase to produce a final product with the correct N-terminal sequence. The final lyophilized protein was resuspended at 1 mg/ml in 0.1% BSA. Aliquots were snap frozen and stored at −80 °C.
(§5) Generation of human T cells expressing CXCR4 WT or variants
(§6) Peripheral blood mononuclear cells (PBMCs) were isolated from buffy coats by density gradient centrifugation (Lymphoprep, StemCell ref: 07851) and activated on plates coated with anti-CD3 ([…], Biolegend, ref: 317347, clone: OKT3) and anti-CD28 ([…], Biolegend, ref: 302934, clone: CD28.2) antibodies in T cell media (RPMI 10% FBS, 2 mM L-Glutamine, 1% Penicillin-Streptomycin) with IL-15 and IL-7 (Miltenyi Biotec, 10 ng/ml each, ref: 130-095-362 and ref: 130-095-765 respectively). The day before transduction, non-cell tissue culture treated 24-well plate (Greiner Bio-One, ref: 662102) was coated with retronectin (Takara Bio, ref: T100B) in PBS (7 μg/ml, 1 ml per well), and incubated overnight at 4 °C. Three days after activation, retronectin was removed and the plate was blocked with RPMI 10% FBS for 15 min at 37 °C. Then, media was removed and retroviral supernatant was centrifuged at 2000 × g, 1 h, 32 °C on retronectin-coated plates. Retroviral supernatant was gently removed and activated T cell suspension at 0.15 E^6 cells/ml was added, and centrifuged at 1000 × g, 10 min, 21 °C. Cells were incubated at 37 °C, 5% CO2, and 95% relative humidity for 3 days. After 48–72 h of transduction, T cells were harvested and further expanded in T cell media containing IL-7 and IL-15. Transduced T cells were positively selected with a PE selection kit (EasySep, ref: 17684) and an anti-HA PE-conjugated antibody (Biolegend, ref: 901518, clone: 16B12) at a 1:50 dilution to enrich transduced T cells. Enrichment of surface expression in PE-selected cells was confirmed by flow cytometry using a BD FACS LSR II cytometer (BD Biosciences) and analyzed with FlowJo software (BD Biosciences).
(§7) T cells transduced and selected for expression of CXCR4 variants from 3 to 6 donors were stained with 1 µM Vybrant DiO cell-labeling solution (Thermo, ref: V22886) in serum-free RPMI 1640 + GlutaMax. 40,000 cells in 75 µL were seeded in each well of 96-well Boyden chambers with 5.0 µm pores (Corning, ref: 3388)[44]. Reservoirs were filled with 200 µL serum-free RPMI 1640 + GlutaMax without chemoattractant or supplemented with 100 nM chemokine. The bottom of the attractant reservoir was imaged for migrated cells for 8 h with a Cytation 5 BioSpa (Biotek) at 37 °C with 5% CO2. Fluorescent spots were counted over time and compared to the no-chemoattractant control to calculate the migration index (# migrated cells towards chemoattractant / # migrated cells in absence of chemoattractant). The peak migration indices averaged between 3 technical replicates for each transduced donor per chemoattractant concentration were plotted.

[5] = tested on: WT CXCR4 transduced primary human T cells; assay: Boyden chamber migration of T cells transduced with WT CXCR4; parameters: key to Migration Index: migrated cells toward chemokine / migrated cells without chemoattractant; conditions: for Migration Index: 100 nM full-length chemokine vs no chemoattractant, peak over 8 h, WT receptor
Procedure: as §3, §4, §5, §6, §7

[6] = tested on: Csedy transduced primary human T cells; assay: Boyden chamber migration of T cells transduced with Csedy; parameters: key: migrated cells toward chemokine / migrated cells without chemoattractant; conditions: 100 nM full-length chemokine vs no chemoattractant, peak over 8 h
Procedure: as §3, §4, §5, §6, §7

[7] = tested on: Cdyn transduced primary human T cells; assay: Boyden chamber migration of T cells transduced with Cdyn; conditions: 100 nM full-length chemokine vs no chemoattractant, peak over 8 h
Procedure: as §3, §4, §5, §6, §7

Chain of Cdyn (P61073 whole entry L41A/H113N/S178A): as the sequence (P61073 whole entry) above, with L41A, H113N, S178A counted along it

CC(C)C[C@H](NC(=O)[C@H](CO)NC(=O)[C@H](Cc1ccc(O)cc1)NC(=O)[C@@H]1CCCN1C(=O)[C@@H](N)CCCCN)C(=O)N[C@@H](CO)C(=O)N[C@@H](Cc1ccc(O)cc1)C(=O)N[C@@H](CCCNC(=N)N)C(=O)N[C@@H](CS)C(=O)N1CCC[C@H]1C(=O)N[C@@H](CS)C(=O)N[C@@H](CCCNC(=N)N)C(=O)N[C@@H](Cc1ccccc1)C(=O)N[C@@H](Cc1ccccc1)C(=O)N[C@@H](CCC(=O)O)C(=O)N[C@@H](CO)C(=O)N[C@@H](Cc1c[nH]cn1)C(N)=O [V3Y] (H-KPYSLSYRCPCRFFESH-NH2; N-terminus assumed)
enhanced potency ([1]; vs WT receptor–peptide pair): more than 80 -fold
Gi BRET (dEC50) ([1]; replicate 1): -2.1375
Gi BRET (dEC50) ([1]; replicate 2): -1.6575
Gi BRET (dEC50) ([1]; replicate 3): -1.8525
Gi BRET (dEC50) ([1]; replicate 4): -1.6695
Gi BRET (dEC50) ([1]; replicate 5): -1.8605

V3W-Y7L: CXCL12(1-17) peptide variant V3W-Y7L (KPWSLSLRCPCRFFESH-NH2; cysteine pairing not given here; UniProt P48061 22-38, looked up, variant V3W Y7L)
Efficacy, Gi ([2]; mean): 135.5 %WT-WT
Gi BRET (dEC50) ([2]; replicate 1): -1.6525
Gi BRET (dEC50) ([2]; replicate 2): -2.5125
Gi BRET (dEC50) ([2]; replicate 3): -1.456

V3W: CXCL12(1-17) peptide variant V3W (KPWSLSYRCPCRFFESH-NH2; cysteine pairing not given here; UniProt P48061 22-38, looked up, variant V3W)
Efficacy, Gi ([1]; mean): 130.6 %WT-WT
Gi BRET (dEC50) ([1]; replicate 1): -1.8535
Gi BRET (dEC50) ([1]; replicate 2): -2.0125
Gi BRET (dEC50) ([1]; replicate 3): -2.163

WT CXCR4: WT CXCR4 with an N-terminal 3xHA-tag
Gαi BRET response ([3]; log[WT CXCL12(1-17)] -4.17653, replicate 1): 84.4534
Gαi BRET response ([3]; log[WT CXCL12(1-17)] -4.17653, replicate 2): 83.4696
Gαi BRET response ([3]; log[WT CXCL12(1-17)] -4.65365, replicate 1): 62.5022
Gαi BRET response ([3]; log[WT CXCL12(1-17)] -4.65365, replicate 2): 62.6195
Gαi BRET response ([3]; log[WT CXCL12(1-17)] -5.13077, replicate 1): 35.993
Gαi BRET response ([3]; log[WT CXCL12(1-17)] -5.13077, replicate 2): 39.2443
Gαi BRET response ([3]; log[WT CXCL12(1-17)] -5.60789, replicate 1): 12.5404
Gαi BRET response ([3]; log[WT CXCL12(1-17)] -5.60789, replicate 2): 16.9401
Gαi BRET response ([3]; log[WT CXCL12(1-17)] -6.08501, replicate 1): 10.2917
Gαi BRET response ([3]; log[WT CXCL12(1-17)] -6.08501, replicate 2): 3.156
Gαi BRET response ([3]; log[WT CXCL12(1-17)] -8, replicate 1): -1.029
Gαi BRET response ([3]; log[WT CXCL12(1-17)] -8, replicate 2): 1.036

full-length V3Y-Y7L: full-length chemokine incorporating the designed N-terminal tail V3Y-Y7L
Migration Index ([4]; donor/replicate 1): 2.938
Migration Index ([4]; donor/replicate 2): 2.133
Migration Index ([4]; donor/replicate 3): 3.389
Migration Index ([4]; donor/replicate 4): 4.146
Migration Index ([4]; donor/replicate 5): 3.781
Migration Index ([4]; donor/replicate 6): 2.587
Migration Index ([5]; donor/replicate 1): 2
Migration Index ([5]; donor/replicate 2): 2.852
Migration Index ([5]; donor/replicate 3): 2.992
Migration Index ([6]; donor/replicate 1): 4.478
Migration Index ([6]; donor/replicate 2): 3.833
Migration Index ([6]; donor/replicate 3): 3.752
Migration Index ([6]; donor/replicate 4): 3.787

full-length V3Y: full-length chemokine incorporating the designed N-terminal tail V3Y
Migration Index ([5]; donor/replicate 1): 2.294
Migration Index ([5]; donor/replicate 2): 2.226
Migration Index ([5]; donor/replicate 3): 3.315
Migration Index ([5]; donor/replicate 4): 2.878
Migration Index ([5]; donor/replicate 5): 1.825
Migration Index ([7]; donor/replicate 1): 4.176
Migration Index ([7]; donor/replicate 2): 5.188
Migration Index ([7]; donor/replicate 3): 4.028

full-length WT: full-length WT CXCL12 chemokine [reference compound]
Migration Index ([4]; donor/replicate 1): 3.533
Migration Index ([4]; donor/replicate 2): 2.962
Migration Index ([4]; donor/replicate 3): 2.156
Migration Index ([4]; donor/replicate 4): 3.087
Migration Index ([4]; donor/replicate 5): 2.058
enhanced migration ([5]; 100 nM WT CXCL12, vs no-attractant controls, WT CXCR4): around 1.5 -fold
Migration Index ([5]; donor/replicate 1): 1.882
Migration Index ([5]; donor/replicate 2): 1.899
Migration Index ([5]; donor/replicate 3): 1.407
Migration Index ([5]; donor/replicate 4): 0.96
Migration Index ([6]; donor/replicate 1): 4.556
Migration Index ([6]; donor/replicate 2): 4.556
Migration Index ([6]; donor/replicate 3): 4.738
Migration Index ([6]; donor/replicate 4): 4.774
Migration Index ([7]; donor/replicate 1): 3.5
Migration Index ([7]; donor/replicate 2): 2.758
Migration Index ([7]; donor/replicate 3): 2.302

Source: publication PMC10198977, “Computational design of dynamic receptor—peptide signaling complexes applied to chemotaxis” (Nature Communications, 2023)
